The text below walks through data of US12139520B2 (priority 2020, dated 2024).

Bridge positions count the residues as written; N and C are the ends. Square brackets hold non-standard residues; d marks the D form. Peptide text beside a SMILES is read from it. Hyp = O=C(O)[C@@H]1C[C@@H](O)CN1

The data set in a line: Physical stability of peptide analogues (Thioflavin T fibrillation). It counts as physicochemical. To be noted: maximum ThT signal normalized between hAMY maximum and buffer background; 40° C., shaking, four days; pH 7 per table title. Here is the method:
General Protocols for Determination of Physical Stability of Peptide Analogues
Peptides were dissolved in buffers (50 mM sodium acetate at pH 4 or 50 mM sodium phosphate at pH 7) and incubated for one hour. The samples were then divided into two replicates of 80 μl in a black 384 well plate (μ-clear, Greiner Bio-One) and mixed with Thioflavin T (ThT) to a final concentration of 4 μM. The plate was sealed and placed in a plate reader (CLARIOstar, BMG) where the temperature was set at 40° C. during the course of the experiment. The samples were further stressed by shaking the plate at 700 rpm (linear) for five minutes before every measurement. The fluorescence was measured every 10 min for four days by exciting the ThT at 450 nm and measuring the emission at 480 nm. For each peptide, the ThT signal over time was smoothened using Local Polynomial Regression fitting (LOESS) as implemented in the statistical programming environment R. For the smoothened data, the maximum ThT signal was normalized in percent between the maximum ThT signal for hAMY and the buffer background.
As for `CC[C@H](C)[C@H](NC(=O)[C@H](CCC(N)=O)NC(=O)[C@H](Cc1c[nH]cn1)NC(=O)[C@H](C)NC(=O)[C@H](CC(C)C)NC(=O)[C@H](CCCNC(=N)N)NC(=O)[C@H](CCC(N)=O)NC(=O)[C@@H](NC(=O)[C@@H](NC(=O)[C@@H]1CSSC[C@H](NC(=O)CN)C(=O)N[C@@H](CCCNC(=N)N)C(=O)N[C@@H]([C@@H](C)O)C(=O)NCC(=O)N[C@@H]([C@@H](C)O)C(=O)N1)[C@@H](C)O)C(C)C)C(=O)N[C@@H](Cc1ccc(O)cc1)C(=O)N[C@@H](CCC(N)=O)C(=O)N[C@@H](Cc1ccccc1)C(=O)N[C@H](C(=O)N[C@@H](CC(=O)O)C(=O)N[C@@H](CCCCN)C(=O)N[C@@H](CC(=O)O)C(=O)N[C@@H](CCCCN)C(=O)N[C@@H](CC(=O)O)C(=O)N[C@@H](CC(N)=O)C(=O)N[C@H](C(=O)N[C@@H](C)C(=O)N1CCC[C@H]1C(=O)N[C@@H](CCCNC(=N)N)C(=O)N[C@H](C(=O)N[C@@H](CC(N)=O)C(=O)N[C@H](C(=O)N[C@@H](CO)C(=O)N1CCC[C@H]1C(=O)N[C@@H](CCC(N)=O)C(=O)NCC(=O)N[C@@H](Cc1ccc(O)cc1)C(N)=O)[C@@H](C)CC)[C@@H](C)O)C(C)C)[C@@H](C)O` [compound 199] (H-GCRTGTCTVQRLAHQIYQFTDKDKDNVAPRTNISPQGY-NH2; disulfide 2-7; N-terminus assumed), the “Max ThT signal (%)” value came out at 8.900%.

In the case of `CC[C@H](C)[C@H](NC(=O)[C@H](CCC(N)=O)NC(=O)[C@H](Cc1c[nH]cn1)NC(=O)[C@H](C)NC(=O)[C@H](CC(C)C)NC(=O)[C@H](CCCNC(=N)N)NC(=O)[C@H](CCC(N)=O)NC(=O)[C@@H](NC(=O)[C@@H](NC(=O)[C@@H]1CSSC[C@H](NC(=O)CN)C(=O)N[C@@H](CCCNC(=N)N)C(=O)N[C@@H]([C@@H](C)O)C(=O)NCC(=O)N[C@@H]([C@@H](C)O)C(=O)N1)[C@@H](C)O)C(C)C)C(=O)N[C@@H](Cc1ccc(O)cc1)C(=O)N[C@@H](CCC(N)=O)C(=O)N[C@@H](Cc1ccccc1)C(=O)N[C@H](C(=O)N[C@@H](CC(=O)O)C(=O)N[C@@H](CCCCN)C(=O)N[C@@H](CC(=O)O)C(=O)N[C@@H](CCCCN)C(=O)N[C@@H](CC(=O)O)C(=O)N[C@@H](CC(N)=O)C(=O)N[C@H](C(=O)N[C@@H](C)C(=O)N1CCC[C@H]1C(=O)N[C@@H](CCCNC(=N)N)C(=O)N[C@@H](CO)C(=O)N[C@@H](CCCCN)C(=O)N[C@H](C(=O)N[C@@H](CO)C(=O)N1CCC[C@H]1C(=O)N[C@@H](CC(N)=O)C(=O)NCC(=O)N1C[C@H](O)C[C@H]1C(N)=O)C(C)C)C(C)C)[C@@H](C)O` [compound 204] (H-GCRTGTCTVQRLAHQIYQFTDKDKDNVAPRSKVSPNG[Hyp]-NH2; disulfide 2-7; N-terminus assumed), the “Max ThT signal (%)” value was determined as 2.200%.

On to `CC[C@H](C)[C@H](NC(=O)[C@H](CCC(N)=O)NC(=O)[C@H](Cc1c[nH]cn1)NC(=O)[C@H](C)NC(=O)[C@H](CC(C)C)NC(=O)[C@H](CCCNC(=N)N)NC(=O)[C@H](CCC(N)=O)NC(=O)[C@@H](NC(=O)[C@@H](NC(=O)[C@@H]1CSSC[C@H](NC(=O)CN)C(=O)N[C@@H](CCCNC(=N)N)C(=O)N[C@@H]([C@@H](C)O)C(=O)NCC(=O)N[C@@H]([C@@H](C)O)C(=O)N1)[C@@H](C)O)C(C)C)C(=O)N[C@@H](Cc1ccc(O)cc1)C(=O)N[C@@H](CCC(N)=O)C(=O)N[C@@H](Cc1ccccc1)C(=O)N[C@H](C(=O)N[C@@H](CC(=O)O)C(=O)N[C@@H](CCCCN)C(=O)N[C@@H](Cc1ccccc1)C(=O)N[C@@H](CCCCN)C(=O)N[C@@H](CC(=O)O)C(=O)N[C@@H](CC(N)=O)C(=O)N[C@H](C(=O)N[C@@H](C)C(=O)N1CCC[C@H]1C(=O)N[C@@H](CCCNC(=N)N)C(=O)N[C@@H](CO)C(=O)N[C@@H](CCCCN)C(=O)N[C@H](C(=O)N[C@@H](CO)C(=O)N1CCC[C@H]1C(=O)N[C@@H](CCC(N)=O)C(=O)N[C@@H](Cc1ccccc1)C(=O)N1C[C@H](O)C[C@H]1C(N)=O)[C@@H](C)CC)C(C)C)[C@@H](C)O` [compound 211] (H-GCRTGTCTVQRLAHQIYQFTDKFKDNVAPRSKISPQF[Hyp]-NH2; disulfide 2-7; N-terminus assumed), for which the “Max ThT signal (%)” value came out at 5.200%.

Turning to `CC[C@H](C)[C@H](NC(=O)[C@H](CCC(N)=O)NC(=O)[C@H](Cc1c[nH]cn1)NC(=O)[C@H](C)NC(=O)[C@H](CC(C)C)NC(=O)[C@H](CCCNC(=N)N)NC(=O)[C@H](CCC(N)=O)NC(=O)[C@@H](NC(=O)[C@@H](NC(=O)[C@@H]1CSSC[C@H](NC(=O)CN)C(=O)N[C@@H](CCCNC(=N)N)C(=O)N[C@@H]([C@@H](C)O)C(=O)NCC(=O)N[C@@H]([C@@H](C)O)C(=O)N1)[C@@H](C)O)C(C)C)C(=O)N[C@@H](Cc1c[nH]cn1)C(=O)N[C@@H](CCC(N)=O)C(=O)N[C@@H](Cc1ccccc1)C(=O)N[C@H](C(=O)N[C@@H](CC(N)=O)C(=O)N[C@@H](CCCCN)C(=O)N[C@@H](CC(=O)O)C(=O)N[C@@H](CCCCN)C(=O)N[C@@H](CC(=O)O)C(=O)N[C@@H](CC(N)=O)C(=O)N[C@H](C(=O)N[C@@H](C)C(=O)N1CCC[C@H]1C(=O)N[C@@H](CCCNC(=N)N)C(=O)N[C@@H](CO)C(=O)N[C@@H](CCCCN)C(=O)N[C@H](C(=O)N[C@@H](CO)C(=O)N1CCC[C@H]1C(=O)N[C@@H](CCC(N)=O)C(=O)N[C@H](C(=O)N1C[C@H](O)C[C@H]1C(N)=O)[C@@H](C)O)[C@@H](C)CC)C(C)C)[C@@H](C)O` [compound 227] (H-GCRTGTCTVQRLAHQIHQFTNKDKDNVAPRSKISPQT[Hyp]-NH2; disulfide 2-7; N-terminus assumed), the “Max ThT signal (%)” value was determined as 8.500%.

With `CC[C@H](C)[C@H](NC(=O)[C@H](CCC(N)=O)NC(=O)[C@H](Cc1c[nH]cn1)NC(=O)[C@H](C)NC(=O)[C@H](CC(C)C)NC(=O)[C@H](CCCNC(=N)N)NC(=O)[C@H](CCC(N)=O)NC(=O)[C@@H](NC(=O)[C@@H](NC(=O)[C@@H]1CSSC[C@H](NC(=O)CN)C(=O)N[C@@H](CCCNC(=N)N)C(=O)N[C@@H]([C@@H](C)O)C(=O)NCC(=O)N[C@@H]([C@@H](C)O)C(=O)N1)[C@@H](C)O)C(C)C)C(=O)N[C@@H](Cc1ccc(O)cc1)C(=O)N[C@@H](CCC(N)=O)C(=O)N[C@@H](Cc1ccccc1)C(=O)N[C@H](C(=O)N[C@@H](CC(=O)O)C(=O)N[C@@H](CCCCN)C(=O)N[C@@H](Cc1ccccc1)C(=O)N[C@@H](CCCCN)C(=O)N[C@@H](CC(=O)O)C(=O)N[C@@H](CC(N)=O)C(=O)N[C@H](C(=O)N[C@@H](C)C(=O)N1CCC[C@H]1C(=O)N[C@@H](CCCNC(=N)N)C(=O)N[C@@H](CO)C(=O)N[C@@H](CCCCN)C(=O)N[C@H](C(=O)N[C@@H](CO)C(=O)N1CCC[C@H]1C(=O)N[C@@H](CCC(N)=O)C(=O)N[C@H](C(=O)N1CCC[C@H]1C(N)=O)[C@@H](C)O)[C@@H](C)CC)C(C)C)[C@@H](C)O` [compound 235] (H-GCRTGTCTVQRLAHQIYQFTDKFKDNVAPRSKISPQTP-NH2; disulfide 2-7; N-terminus assumed), the “Max ThT signal (%)” value came to 0.800%.

In the case of `CC[C@H](C)[C@H](NC(=O)[C@H](CCC(N)=O)NC(=O)[C@H](Cc1c[nH]cn1)NC(=O)[C@H](C)NC(=O)[C@H](CC(C)C)NC(=O)[C@H](CCCNC(=N)N)NC(=O)[C@H](CCC(N)=O)NC(=O)[C@@H](NC(=O)[C@@H](NC(=O)[C@@H]1CSSC[C@H](NC(=O)CN)C(=O)N[C@@H](CCCNC(=N)N)C(=O)N[C@@H]([C@@H](C)O)C(=O)NCC(=O)N[C@@H]([C@@H](C)O)C(=O)N1)[C@@H](C)O)C(C)C)C(=O)N[C@@H](Cc1ccc(O)cc1)C(=O)N[C@@H](CCC(N)=O)C(=O)N[C@@H](Cc1ccccc1)C(=O)N[C@H](C(=O)N[C@@H](CC(=O)O)C(=O)N[C@@H](CCCCN)C(=O)N[C@@H](Cc1ccccc1)C(=O)N[C@@H](CCCCN)C(=O)N[C@@H](CC(=O)O)C(=O)N[C@@H](CC(N)=O)C(=O)N[C@H](C(=O)N[C@@H](C)C(=O)N1CCC[C@H]1C(=O)N[C@@H](CCCNC(=N)N)C(=O)N[C@@H](CO)C(=O)N[C@@H](CCCCN)C(=O)N[C@H](C(=O)N[C@@H](CO)C(=O)N1CCC[C@H]1C(=O)N[C@@H](CCC(N)=O)C(=O)N[C@@H](CCSC)C(=O)N1C[C@H](O)C[C@H]1C(N)=O)[C@@H](C)CC)C(C)C)[C@@H](C)O` [compound 236] (H-GCRTGTCTVQRLAHQIYQFTDKFKDNVAPRSKISPQM[Hyp]-NH2; disulfide 2-7; N-terminus assumed), the “Max ThT signal (%)” value is 0.600%.

Turning to `CC[C@H](C)[C@H](NC(=O)[C@H](CCC(N)=O)NC(=O)[C@H](Cc1c[nH]cn1)NC(=O)[C@H](C)NC(=O)[C@H](CC(C)C)NC(=O)[C@H](CCCNC(=N)N)NC(=O)[C@H](CCC(N)=O)NC(=O)[C@@H](NC(=O)[C@@H](NC(=O)[C@@H]1CSSC[C@H](NC(=O)CN)C(=O)N[C@@H](CCCNC(=N)N)C(=O)N[C@@H]([C@@H](C)O)C(=O)NCC(=O)N[C@@H]([C@@H](C)O)C(=O)N1)[C@@H](C)O)C(C)C)C(=O)N[C@@H](Cc1ccc(O)cc1)C(=O)N[C@@H](CCC(N)=O)C(=O)N[C@@H](Cc1ccccc1)C(=O)N[C@H](C(=O)N[C@@H](CC(=O)O)C(=O)N[C@@H](CCCCN)C(=O)N[C@@H](Cc1ccccc1)C(=O)N[C@@H](CCCCN)C(=O)N[C@@H](CC(=O)O)C(=O)N[C@@H](CC(N)=O)C(=O)N[C@H](C(=O)N[C@@H](C)C(=O)N1CCC[C@H]1C(=O)N[C@@H](CCCNC(=N)N)C(=O)N[C@@H](CO)C(=O)N[C@@H](CCCCN)C(=O)N[C@H](C(=O)N[C@@H](CO)C(=O)N1CCC[C@H]1C(=O)N[C@@H](CCC(N)=O)C(=O)N[C@H](C(=O)N[C@@H](C)C(N)=O)[C@@H](C)O)[C@@H](C)CC)C(C)C)[C@@H](C)O` [compound 241] (H-GCRTGTCTVQRLAHQIYQFTDKFKDNVAPRSKISPQTA-NH2; disulfide 2-7; N-terminus assumed), the “Max ThT signal (%)” value stood at 0.900%.
